pEC50: −log10 of the molar value. Several values for one entry are separate records, joined by “and”; a condition that tells them apart may be missing. Equal values may be shown once. Where a SMILES comes first, the peptide text is derived from it. [ ]: non-standard residue; d: D form. Dap = NC[C@H](N)C(=O)O
Tests used:
Type in all cases: functional, tissue-based
[1] = target: Nociceptin receptor (Rattus norvegicus) (UniProt P35370); test: (§1) Activity against LFES-evoked contraction of Wistar rat vas deferens
Nociceptin receptor (Rattus norvegicus), sequence (P35370 whole entry): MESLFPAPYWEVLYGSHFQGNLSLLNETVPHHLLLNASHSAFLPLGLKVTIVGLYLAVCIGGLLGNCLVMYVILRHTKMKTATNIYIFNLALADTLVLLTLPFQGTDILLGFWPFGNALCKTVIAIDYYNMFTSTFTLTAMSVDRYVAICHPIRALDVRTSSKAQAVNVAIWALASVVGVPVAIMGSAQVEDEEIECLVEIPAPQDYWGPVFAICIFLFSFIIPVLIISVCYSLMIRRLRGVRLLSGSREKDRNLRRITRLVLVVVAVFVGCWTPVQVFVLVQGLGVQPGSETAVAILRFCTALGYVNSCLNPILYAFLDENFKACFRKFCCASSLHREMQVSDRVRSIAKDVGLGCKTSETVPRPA

Nociceptin receptor [2] = target: T1, Nociceptin receptor (Rattus norvegicus, UniProt P35370); test: as §1
T1 sequence (P35370 whole entry): as above

[3] = target: Nociceptin receptor (Rattus norvegicus) (UniProt P35370); test: Activity against LFES-evoked contraction of Wistar rat vas deferens relative to N/OFQ(1-13)NH2 in presence of naloxone
[4] = target: Nociceptin receptor (Rattus norvegicus) (UniProt P35370); test: Activity against LFES-evoked contraction of Wistar rat vas deferens relative to N/OFQ(1-13)NH2
[5] = target: Nociceptin receptor (Rattus norvegicus) (UniProt P35370); test: (§2) Activity against LFES-evoked contraction of Wistar rat vas deferens in presence of naloxone
Nociceptin receptor [6] = target: T1, Nociceptin receptor; test: as §2

Row | Structure (SMILES) | Emax [1] | pEC50 (Nociceptin receptor [2]) | Activity [3] | Activity [4] | Emax [5] | pEC50 (Nociceptin receptor [6])
1 | C[C@H](NC(=O)CNC(=O)[C@@H](NC(=O)[C@H](Cc1ccccc1)NC(=O)CNC(=O)CNC(=O)[C@@H](N)Cc1ccccc1)[C@@H](C)O)C(=O)N[C@@H](CCCN=C(N)N)C(=O)N[C@@H](CN)C(=O)N[C@@H](CO)C(=O)N[C@@H](C)C(=O)N[C@@H](CCCN=C(N)N)C(=O)N[C@@H](CN)C(N)=O (H-FGGFTGAR[Dap]SAR[Dap]-NH2) | -54% | 5.63 | 0.06 | 0.25 | -46% | 5.21
2 | C[C@H](NC(=O)CNC(=O)[C@@H](NC(=O)[C@H](Cc1ccccc1)NC(=O)CNC(=O)CNC(=O)[C@@H](N)Cc1ccccc1)[C@@H](C)O)C(=O)N[C@@H](CCCN=C(N)N)C(=O)N[C@@H](CCCN)C(=O)N[C@@H](CO)C(=O)N[C@@H](C)C(=O)N[C@@H](CCCN=C(N)N)C(=O)N[C@@H](CCCCN)C(N)=O | -71% | 6.63 | 1.56 | 2.45 | -77% | 6.67
3 | C[C@H](NC(=O)CNC(=O)[C@@H](NC(=O)[C@H](Cc1ccccc1)NC(=O)CNC(=O)CNC(=O)[C@@H](N)Cc1ccccc1)[C@@H](C)O)C(=O)N[C@@H](CCCN=C(N)N)C(=O)N[C@@H](CCCCN)C(=O)N[C@@H](CO)C(=O)N[C@@H](C)C(=O)N[C@@H](CCCN=C(N)N)C(=O)N[C@@H](CCCN)C(N)=O | -60% and -57% | 5.21 and 4.95 | 0.04 | 0.09 and 0.05 | -33% and -49% | 5.03 and 4.96
4 | C[C@H](NC(=O)CNC(=O)[C@@H](NC(=O)[C@H](Cc1ccccc1)NC(=O)CNC(=O)CNC(=O)[C@@H](N)Cc1ccccc1)[C@@H](C)O)C(=O)N[C@@H](CCCN=C(N)N)C(=O)N[C@@H](CCCN)C(=O)N[C@@H](CO)C(=O)N[C@@H](C)C(=O)N[C@@H](CCCN=C(N)N)C(=O)N[C@@H](CCCN)C(N)=O | -56% | 6.39 | 2.45 | 1.41 | -70% | 6.01
5 | C[C@H](NC(=O)CNC(=O)[C@@H](NC(=O)[C@H](Cc1ccccc1)NC(=O)CNC(=O)CNC(=O)[C@@H](N)Cc1ccccc1)[C@@H](C)O)C(=O)N[C@@H](CCCNC(=N)N)C(=O)N[C@@H](CCCCN)C(=O)N[C@@H](CO)C(=O)N[C@@H](C)C(=O)N[C@@H](CCCNC(=N)N)C(=O)N[C@@H](CCCCN)C(N)=O | -46% | – | 1 | 1 | -49% | –

Source: ChEMBL document CHEMBL1146032, “Synthesis and biological activity of nociceptin/orphanin FQ(1-13)NH2 analogues modified in 9 and/or 13 position” (Bioorg Med Chem Lett, 2006)
